Laboratory results: US9938328B2, “Use of PEDF-derived polypeptides for treating alopecia and/or hair depigmentation” (MacKay Memorial Hospital, priority 2012, dated 2018)

Assays:
C57BL/6 mice [1] = assay: Chemotherapy (CYP)-induced hair loss and depigmentation in depilated mice, topical 44-mer ointment; assay type: in vivo, mouse
Experimental: (§1) Before use, the stock containing the 44-mer was prepared into a working dilution, which is then mixed with an antibiotic ointment containing 5 mg/g neomycin sulfate and 12.5 mg/g bacitracin to obtain an antibiotic ointment containing 25 μM of 44-mer. As to other PEDF peptides, 5 μl of 5 mM PEDF peptide stock was gradually dissolved in ethyl alcohol (30% w/w in distilled water), and then 1-oleoyl-rac-glycerol (1% w/w, a skin penetration enhancer) and light mineral oil (1% w/w) were gradually added. The solution was finally gelled by adding hydroxypropyl methylcellulose (5% w/w) to a final volume of 1 ml. A DMSO vehicle corresponding to the peptide formulation was prepared for the purpose of in vivo comparison. FITC-29-mer was also dissolved in the same formulation for applied on top of skin to determining the follicular distribution of FITC-29-mer.
(§2) For topical treatments, 350 mg ointment or gel containing 25 μM of PEDF peptide was spread gently over dorsal skin per mouse.
For immunostaining, de-paraffinized tissue sections were blocked with 10% goat serum for 1 hour. Dual staining was done using primary antibodies against c-kit (1:100 dilution; red) and tyrosinase (1:100 dilution) at 37° C. for 2 hours, followed by incubation with the rhodamine-conjugated goat anti-rabbit IgG antibody (1:500 dilution) for 1 hour at room temperature a before counterstaining with hematoxylin (blue) for about 7 minutes.
The vibrissae follicle cryosections were washed three times in PBS. Formalin-fixed, paraffin-embedded skin specimens were deparaffinized in xylene and rehydrated in a graded series of ethanol. Sections were then stained with TdT-mediated dUTP nick-end labeling (TUNEL)-based kit (Roche Molecular Biochemicals, Indianapolis, Ind.) following the manufacturer's instructions. The cell number was monitored by counterstaining with Hoechst 33258 (blue). The nuclei were calculated in ten randomly selected fields of the three different chambers by a Zeiss epifluorescence microscope (400×, 10 fields/sample). Pictures were recorded on Zeiss software.
6-week-old female C57BL/6 mice that had normal black fur (i.e., those had heavily melanized terminal hair shafts) were used in this example. In four independent experiments, a total of 80 mice were used. C57BL-6 mice have been widely used in the research of alopecia and hair-depigmentation induced by chemotherapy. Only mice in the resting stage of the hair cycle (telogen) were used in these studies. Since pigment production (melanogenesis) in mice occurs exclusively in anagen follicles, telogen C57BL-6 mice could be recognized by the homogeneously pink color of their back skin. Anagen was induced in the back skin of telogen mice by depilation.
In order to obtain mice that were in exactly the same stage of anagen development, the dorsal hairs were carefully shaved with an electric clipper. Nine days after the depilation, hair grown to anagen phase as judged by skin color from pink (telogen skin) to gray (early stage of anagen VI).
On day-9 post-depilation, mice were anesthetized by an intraperitoneal injection of a mixture of zoletil (6 mg/kg) and xylazine (3 mg/kg). Mice were randomly assigned to the following experimental groups. In the CYP/vehicle group, mice received intraperitoneal injection of cyclophosphamide (CYP, an anti-cancer drug) (150 mg/kg), and 350 mg antibiotic ointment was applied to the back skin at the same time. […]

C57BL/6 mice [2] = assay: Hydrogen peroxide (oxidative stress)-induced hair loss and depigmentation in depilated mice; assay type: in vivo, mouse; conditions: ointment with 25 μM 44-mer
Experimental: as §1, §2
In this example, the relationships between the stress caused by endogenous challenge (e.g., oxidants) and hair loss and hair graying were investigated. The mice were selected and depilated as described in Example 1 above. On day-9 post-depilation, the mice were subcutaneously injected with hydrogen peroxide at a dose of 10 ml/kg body weight. […]

Sequence: VLLSPLSVATALSALSLGAEQRTESIIHRALYYDLISSPDIHGT [44-mer, 44-mer fragment (residues 78-121) of human PEDF]
- hair growth activity versus CYP/vehicle (photographs, FIG. 1) (C57BL/6 mice [1]; 7 and 36 days after the CYP injection): better hair growth activity
- hair colour versus CYP and CYP/vehicle groups (FIG. 1) (C57BL/6 mice [1]; 36 days after CYP injection): substantially darker hairs
- TUNNEL Labeling Index (%) (C57BL/6 mice [1]; no CYP injection, 350 mg antibiotic ointment containing 44-mer on back skin): <0.1%
- TUNNEL Labeling Index (%) (C57BL/6 mice [1]; with CYP 150 mg/kg i.p., 350 mg antibiotic ointment containing 25 μM 44-mer on back skin daily): 10.6 ± 1.4 %
- c-kit and tyrosinase expression in the bulge (immunostaining, FIG. 3) (C57BL/6 mice [1]; with CYP, barely detected in CYP/vehicle group): c-kit and tyrosinase expression were found in the bulge
- hair growth activity versus H2O2/vehicle (photographs, FIG. 4) (C57BL/6 mice [2]; 22 days after the H2O2 injection (10 ml/kg s.c.)): better hair growth activity
- hair color versus H2O2/vehicle (FIG. 4) (C57BL/6 mice [2]; 22 days after the H2O2 injection): darker
